Data set [1] can be described thus: In vitro stability in rat brain homogenate. To be noted: for remaining at 1 h, 1000 ng/mL / remaining at 1 h, 2000 ng/mL: incubation 1 hr; for remaining at 1 h, 2000 ng/mL: 100 rpm. In kind it is in vitro ADME. Here is the method: (§1) Sprague-Dawley (SD) rats (male, 180-200 g) were supplied by the Laboratory Animal Services Centre at The Chinese University of Hong Kong. All animal studies were conducted under the approval of the Animal Ethics Committee of The Chinese University of Hong Kong, and were performed in accordance with relevant guidelines and regulations. Blank rat brain homogenate was prepared by ultrasonic probe homogenization (Micoson XL-2000, Misonix, […], USA) of brains collected from the control rats. Blank rat plasma was prepared by centrifugation (8000 rcf for 3.5 min) of blood collected from control rats. […] The mixtures were incubated at 37 °C with 100 rpm in a water bath for 1 or 3 hr. […] The supernatant was collected for LC/MS/MS analysis.

Data set [2] can be described thus: In vitro stability in rat plasma. In kind it is in vitro ADME. To be noted: for remaining at 3 h, 2000 ng/mL: rat; for remaining at 1 h, 500 ng/mL / remaining at 3 h, 1000 ng/mL: LLOQ 12.5 ng/mL P3V8. Here is the method: as §1
Data set [3] is described as follows: Plasma pharmacokinetic study in SD rat. The method, then: SD rats (180–200 g) were anesthetized with an intraperitoneal injection of ketamine (60 mg/kg) and xylazine (6 mg/kg) and received a minor surgery of cannulation with a polythene tube (0.4 mm i.d., 0.8 mm o.d., Harvard Apparatus, Holliston, MA, USA) in the left jugular vein. The rats received an overnight recovery with free access to food and water. […] For the pharmacokinetic study, after the drug administration, blood samples were collected from the catheter at appropriate time intervals (2, 5, 10, 15, 20, 30, 45, 60, and 90 min). After each collection, 0.2 mL of saline containing 25 IU heparin was injected to compensate for the blood loss. Plasma was collected after centrifugation at 8000 rcf for 3.5 min and stored at −80°C until analysis. For brain uptake study, at 20 min, the rat was anesthetized and perfused by 500 mL saline, and the whole brain was collected. The brain was wiped by tissue paper to remove excess water, meninges and blood vessels followed by storage at −80 °C until analysis.
Aliquot of plasma sample (80 μL) was mixed with 160 μL acetonitrile. The mixture was vortexed for 1 min and followed by centrifugation at 13000 rcf for 10 min. The supernatant was collect and subjected to LC/MS/MS analysis.
Agilent 6430 Triple Quadrupole LC/MS/MS system (Agilent Technologies, CA, USA) was employed for the analysis. For analysis of P3V8, chromatographic separation was achieved on a SunFire C8 Column (250 mm × 4.6 mm, 5 µm). The mobile phase of water containing 0.2% formic acid (A) and acetonitrile (B) was used with a gradient elution (0–5 min, 20–70% B). The flow rate was 0.8 mL/min. Multiple reactions monitoring (MRM) with fragmentation transition of 500 to 129 in positive ion mode was employed for quantization of P3V8. […] Mobile phase of water (A) and acetonitrile (B) was used. The gradient elution for plasma samples was 0–4 min, 30–95% B, and for brain samples was 0–9 min, 10–95% B. The flow rate was 0.8 mL/min.
Plasma concentration verse time profiles were analyzed by WinNonlin (Pharsight Corporation, Mountain View, CA, USA, Version 2.1) to obtain the pharmacokinetics parameters. Other data were analyzed by one-way ANOVA followed by post hoc Tukey test or unpaired t-test. “*”, “**”, “***” and “****” represent P < 0.05, P < 0.01, P < 0.001 and P < 0.0001 respectively, which are considered statistically significant.

Data set [4] deals with primary rat cortical neurons. The data set is described as follows: LDH cytotoxicity in primary neurons. The class given is cell-based. To be noted: 0.01 nM to 1 µM, 72 hr; P3V8 transfected with DeliverX; 3 independent experiments. The method, then:
HEK293 cells were cultured at 37 °C with 5% CO2 in DMEM supplemented with 10% FBS and 1% penicillin-streptomycin. Primary rat cortical neurons were isolated and cultured as previously described. Transient transfection of HEK293 cells was performed using Lipofectamine 2000 (Life Technologies). P3V8 were delivered to HEK293 cells using the DeliverX (DX) Peptide Transfection Kit (Affymetrix) 4 hr after DNA transfection. At least two batches of independently synthesized peptides were used in the experiments. […]
cortical neurons. A density of […] of primary rat cortical neurons were seeded on culture […]
and 1000 nM of P3V8 peptide (transfected with DeliverX). The lactate dehydrogenase (LDH) cytotoxicity activity was measured 72 hr post-treatment. Fold change of LDH activity was normalized to untreated cells. Data are expressed as mean ± S.E.M. for 3 independent experiments. NS indicates no significance.
(1 picture or pasted object on this page, not shown here)
The LDH cytotoxicity activity was measured 72 hr post-treatment. Fold change of LDH activity was normalized to untreated cells. Data are expressed as mean ± S.E.M. for 3 independent experiments. NS indicates no significance.

For another data set, the system named is HEK293 cells. The data set is described as follows: Cellular uptake studies in HEK293 cells. In kind it is in vitro ADME. As to conditions: 3 hr, 37 °C, cell lysate, LC/MS, normalized to total protein; for cellular uptake level: 100 nM peptide. Here is the method: HEK293 cells were seeded on a 6-well plate at a density of 6 × 10^5 and cultured overnight at 37 °C with 5% CO2 in DMEM supplemented with 10% FBS and 1% penicillin-streptomycin. Cells were then treated with 100, 500 or 1000 nM of respective peptide at 37 °C for 3 hr. After treatment, the cells were washed with ice-cold PBS and then lysed by 2% SDS solution. Aliquot (100 µl) of the cell lysate was added with 200 µl acetonitrile and centrifuged at 13000 rcf for 10 min to precipitate the proteins. The collected supernatant was subjected to LC/MS analysis. The protein concentration of the cell lysate was measured using a bicinchoninic acid protein assay kit following Sigma’s protocol.

The mark [5] stands for this setting: male, Sprague-Dawley, rat plasma, 500 ng/mL, 37 °C, incubation 1 hr, LC/MS/MS, mean ± S.E.M. of 5, read-out: Percentage of remained.
Setting [6] is: male, Sprague-Dawley, rat plasma, 1000 ng/mL, 37 °C, incubation 3 hr, LC/MS/MS, mean ± S.E.M. of 5, read-out: Percentage of remained.
The mark [7] stands for this setting: rat plasma, 2000 ng/mL, 37 °C, 100 rpm, incubation 1 hr, LC/MS/MS, mean ± S.E.M. of 5 independent experiments.
The mark [8] stands for this setting: SD rats, intranasal, 3 μmol/kg, pre-treated with 0.5% chitosan, mean ± S.E.M. of 6.
Where [9] appears, read: SD rats, intranasal, 3 μmol/kg, pre-treated with 0.5% chitosan, plasma, mean ± S.E.M. of 6.
The mark [10] stands for this setting: Sprague-Dawley, rat, plasma, iv, 3 μmol/kg.
[11] abbreviates: male, Sprague-Dawley, rat, tissue homogenate, read-out: Percentage of remained.
Setting [12] is: Sprague-Dawley, rat, in vivo, iv, 3 μmol/kg.

Values joined by “and” are separate entries in the source; they are usually repeats but may differ in a detail not shown here. Identical values can stand only once. “Also recorded” adds a separate entry of the source. Residues, ends and D or L forms follow the SMILES beside them. *: point of attachment. Palmitoyl = CCCCCCCCCCCCCCCC(=O)*

One may read the Tmax as the time from dosing to the highest level. What is called Cmax is the peak of the concentration-time curve. As a reminder, the AUC(0-t) is the area under the concentration-time curve up to a stated or last time point. A high value points to high exposure. Take Ac-DGKSKGIAYIEFK-NH2 [P3V8]: the remaining at 1 h, 500 ng/mL in data set [1] (male, Sprague-Dawley, rat, rat brain homogenate, read-out: Percentage of remained) was < 2.5%; in data set [2] (setting [5]), < 2.5%. The remaining at 1 h, 1000 ng/mL came to 4 ± 1.6% in data set [1] (male, Sprague-Dawley, rat brain homogenate, 37 °C, LC/MS/MS, mean ± S.E.M. of 5, read-out: Percentage of remained) and 8.6 ± 0.5% in data set [2] (male, Sprague-Dawley, rat plasma, 1000 ng/mL, 37 °C, incubation 1 hr, LC/MS/MS, mean ± S.E.M. of 5, read-out: Percentage of remained). Moreover, the remaining at 3 h, 1000 ng/mL in data set [1] (male, Sprague-Dawley, rat brain homogenate, 37 °C, incubation 3 hr, LC/MS/MS, mean ± S.E.M. of 5, LLOQ 12.5 ng/mL P3V8, read-out: Percentage of remained) is < 1.3%; in data set [2] (setting [6]), < 1.3%. In addition, the remaining at 1 h, 2000 ng/mL in data set [1] (male, Sprague-Dawley, rat brain homogenate, 2000 ng/mL, 37 °C, LC/MS/MS, mean ± S.E.M. of 5, read-out: Percentage of remained) stood at 3.3 ± 0.6%. Moreover, the remaining at 3 h, 2000 ng/mL in data set [1] (male, Sprague-Dawley, rat brain homogenate, 2000 ng/mL, 37 °C, incubation 3 hr, LC/MS/MS, mean ± S.E.M. of 5, LLOQ 12.5 ng/mL P3V8, read-out: Percentage of remained) is < 0.6%; in data set [2] (male, Sprague-Dawley, rat plasma, read-out: Percentage of remained), < 0.6%. In addition, the Percentage of remained entry was “almost completely degraded” in data set [1] (rat brain homogenate, 2000 ng/mL, 37 °C, incubation 3 hr, LC/MS/MS, mean ± S.E.M. of 5, LLOQ 12.5 ng/mL P3V8); 20.7 ± 3.3% in data set [2] (setting [7]); “almost completely degraded” in data set [2] (rat plasma, 2000 ng/mL, 37 °C, 100 rpm, incubation 3 hr, LC/MS/MS, mean ± S.E.M. of 5, LLOQ 12.5 ng/mL P3V8, 100 ng/mL L1P3V8). Also, the AUC0-last in data set [3] (setting [8]) was determined as 85 ± 32 nmol·min/L. Moreover, the time of peak concentration (Tmax) in data set [3] (setting [8]) is 15 min and 15 ± 4 min; in data set [3] (Sprague-Dawley, rat, plasma, iv, 3 umol/kg), 2 min. Moreover, the Cmax in data set [3] (setting [9]) was found to be 12 ± 2 nM; in data set [3] (setting [10]), 452 ± 22 nM. In data set [3] (setting [10]), this compound gave an AUC(0-t) of 0.0202 µM·h. In data set [4], the “cytotoxicity (LDH release)” value is “no cytotoxicity; also recorded: no significant cell death”. Besides, the cellular uptake level entry in the data set on HEK293 cells is reported as “no uptake”.

In general, half-life refers to the time in which the quantity being followed falls by half. Regarding `CCCCCCCCCCCCCCCC(=O)N[C@@H](CC(=O)O)C(=O)NCC(=O)N[C@@H](CCCCN)C(=O)N[C@@H](CO)C(=O)N[C@@H](CCCCN)C(=O)NCC(=O)N[C@H](C(=O)N[C@@H](C)C(=O)N[C@@H](Cc1ccc(O)cc1)C(=O)N[C@H](C(=O)N[C@@H](CCC(=O)O)C(=O)N[C@@H](Cc1ccccc1)C(=O)N[C@@H](CCCCN)C(N)=O)[C@@H](C)CC)[C@@H](C)CC` [L1P3V8] (Palmitoyl-DGKSKGIAYIEFK-NH2), the results for the remaining at 1 h, 500 ng/mL in data set [1] (setting [11]) and in data set [2] (setting [5]) were < 20% and 88.1 ± 4.9%, respectively. In addition, the remaining at 3 h, 500 ng/mL in data set [1] (setting [11]) was < 20%; in data set [2] (male, Sprague-Dawley, rat plasma, 500 ng/mL, 37 °C, incubation 3 hr, LC/MS/MS, mean ± S.E.M. of 5, read-out: Percentage of remained), 73.8 ± 5.7%. In addition, in data set [1] (male, Sprague-Dawley, tissue homogenate, rat brain homogenate, 37 °C, LC/MS/MS, mean ± S.E.M. of 5, read-out: Percentage of remained), the remaining at 1 h, 1000 ng/mL worked out at 22.8 ± 1.2%. Further, the remaining at 3 h, 1000 ng/mL amounted to 15.8 ± 0.7% in data set [1] (male, Sprague-Dawley, tissue homogenate, rat brain homogenate, 37 °C, incubation 3 hr, LC/MS/MS, mean ± S.E.M. of 5, LLOQ 12.5 ng/mL P3V8, read-out: Percentage of remained) and 81.2 ± 1.5% in data set [2] (setting [6]). In addition, the remaining at 1 h, 2000 ng/mL was 45 ± 3.5% in data set [1] (male, Sprague-Dawley, tissue homogenate, rat brain homogenate, 2000 ng/mL, 37 °C, LC/MS/MS, mean ± S.E.M. of 5, read-out: Percentage of remained) and 98.8 ± 5% in data set [2] (male, Sprague-Dawley, rat plasma, 2000 ng/mL, 37 °C, 100 rpm, incubation 1 hr, LC/MS/MS, mean ± S.E.M. of 5 independent experiments, read-out: Percentage of remained). Moreover, the remaining at 3 h, 2000 ng/mL was 21.2 ± 3% in data set [1] (male, Sprague-Dawley, tissue homogenate, rat brain homogenate, 2000 ng/mL, 37 °C, incubation 3 hr, LC/MS/MS, mean ± S.E.M. of 5, LLOQ 12.5 ng/mL P3V8, read-out: Percentage of remained) and 86.9 ± 5.5% in data set [2] (male, Sprague-Dawley, plasma, read-out: Percentage of remained). In addition, the Percentage of remained is on record as 98.7 ± 3.9 % in data set [2] (rat plasma, 1000 ng/mL, 37 °C, incubation 1 hr, LC/MS/MS, mean ± S.E.M. of 5) and “nearly all L1P3V8 remained intact” in data set [2] (setting [7]). For the same compound, the AUC0-last in data set [3] (setting [8]) is given as 2277 ± 558^*** min * nmol/L. In addition, the T1/2 in data set [3] (setting [8]) is reported as 37 ± 5 min. For the same compound, the values for the Tmax in data set [3] (setting [8]) and in data set [3] (setting [12]) were 18 ± 1 min and 2 min, respectively. Moreover, the Cmax in data set [3] (setting [9]) was 74 ± 13^*** nmol/L; in data set [3] (setting [12]), 10400 ± 1220 nM. For the same compound, the level at time molar at 1.5 h in data set [3] (Sprague-Dawley, rat, in vivo, iv, 3 umol/kg) came to 190 nM. Moreover, the AUC(0-t) in data set [3] (setting [12]) was 2.99 µM·h. Moreover, in data set [3] (setting [12]), the half-life turned out to be 17 ± 4 min. The “cytotoxicity (LDH release)” value in data set [4] is on record as “no cytotoxicity; also recorded: no cytotoxic effects”. Besides, the cellular uptake level entry with HEK293 cells was “low cellular concentration”. The “cellular uptake level compared to P3V8” value in the data set on HEK293 cells (500 nM and 1 µM peptide) is “higher cellular concentration”.

These data come from PMC5608758, “A brain-targeting lipidated peptide for neutralizing RNA-mediated toxicity in Polyglutamine Diseases” (Scientific Reports, 2017).
